Marks after values point to notes of the source that are not given here.

The subject of experiment [1] is Male Sprague-Dawley Rats. Kind of experiment: In vivo Complete Freund's Adjuvant (CFA) efficacy assay. Also noted: species or system rat; key: (+) indicates the test compound was determined to be efficacious at 3 mpk, oral dosing; (−) indicates the test compound was determined to not be efficacious at 3 mpk, oral dosing. The note with it: inhibition of allodynia vs vehicle, p<0.05.

Experiment [2] has as its target T1, human FAAH (Homo sapiens, UniProt O00519).
T1 construct: made in house; host or cells: E. coli
T1 sequence (O00519 1-579): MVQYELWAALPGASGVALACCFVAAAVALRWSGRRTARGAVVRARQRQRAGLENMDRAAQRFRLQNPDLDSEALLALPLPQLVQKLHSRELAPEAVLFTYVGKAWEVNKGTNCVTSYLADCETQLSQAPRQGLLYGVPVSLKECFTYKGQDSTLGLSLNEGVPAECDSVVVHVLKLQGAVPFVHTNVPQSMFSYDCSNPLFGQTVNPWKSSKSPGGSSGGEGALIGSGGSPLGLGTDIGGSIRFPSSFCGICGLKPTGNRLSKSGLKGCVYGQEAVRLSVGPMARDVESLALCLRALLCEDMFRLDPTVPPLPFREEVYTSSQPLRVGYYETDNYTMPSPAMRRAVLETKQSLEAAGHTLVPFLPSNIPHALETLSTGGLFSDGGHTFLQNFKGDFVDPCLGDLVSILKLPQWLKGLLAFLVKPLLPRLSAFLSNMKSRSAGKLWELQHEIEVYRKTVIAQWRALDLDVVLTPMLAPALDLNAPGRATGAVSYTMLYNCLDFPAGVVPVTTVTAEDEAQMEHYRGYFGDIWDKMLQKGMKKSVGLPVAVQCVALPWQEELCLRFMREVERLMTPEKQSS
Kind of experiment: FAAH assay, human FAAH enzyme inhibition (kinact/Ki). The experiment is classed as biochemical. The note with it: oleamide substrate 50 μM, 30° C., read-out: hFAAH kinact/Ki. The gist of the method:
(§1)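 Purified E. coli-expressed FAAH (1-4 nM) with oleamide at Km (50 μM), coupled GDH/NADH read at 340 nm over 90 min, 30° C, pH 7.4, 7.5% DMSO and EtOH. kobs from mono-exponential fits; kinact/Ki from kobs vs inhibitor slope, multiplied by two.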

For experiment [3], the target named is T2, rat FAAH (Rattus norvegicus, UniProt P97612).
T2 construct: made in house; host or cells: E. coli
T2 sequence (P97612 1-579): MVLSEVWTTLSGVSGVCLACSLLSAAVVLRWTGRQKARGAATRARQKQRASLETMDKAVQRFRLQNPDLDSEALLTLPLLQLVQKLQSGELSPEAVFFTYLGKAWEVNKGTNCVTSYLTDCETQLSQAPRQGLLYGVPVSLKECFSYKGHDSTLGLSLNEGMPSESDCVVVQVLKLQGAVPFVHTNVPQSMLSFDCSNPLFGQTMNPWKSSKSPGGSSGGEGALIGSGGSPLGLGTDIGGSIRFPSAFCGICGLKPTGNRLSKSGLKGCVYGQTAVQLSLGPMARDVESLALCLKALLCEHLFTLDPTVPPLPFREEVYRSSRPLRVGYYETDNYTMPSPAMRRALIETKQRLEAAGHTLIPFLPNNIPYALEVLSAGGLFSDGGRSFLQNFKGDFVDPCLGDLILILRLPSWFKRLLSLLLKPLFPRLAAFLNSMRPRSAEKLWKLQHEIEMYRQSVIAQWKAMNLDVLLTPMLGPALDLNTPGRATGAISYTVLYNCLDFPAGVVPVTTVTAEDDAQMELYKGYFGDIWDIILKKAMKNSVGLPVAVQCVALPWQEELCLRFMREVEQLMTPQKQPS
Description: FAAH assay, rat FAAH enzyme inhibition (kinact/Ki). The experiment is classed as biochemical. The note with it: oleamide substrate 50 μM, 30° C., read-out: rFAAH kinact/Ki. The gist of the method:
as §1

For `Cc1noc(NC(=O)N2CCC3(CC2)CC(c2cccc(Oc4ccc(C(F)(F)F)cn4)c2)C3)c1C` [Example 2, N-(3,4-dimethylisoxazol-5-yl)-2-(3-{[5-(trifluoromethyl)pyridin-2-yl]oxy}phenyl)-7-azaspiro[3.5]nonane-7-carboxamide], in experiment [1] (25 mpk, intraperitoneal dosing), the “CFA Efficacy” value is on record as “(+)^d”. In addition, the kinact/KI in experiment [2] was 1760 M⁻¹ s⁻¹; in experiment [3], 9460 M⁻¹ s⁻¹.

Regarding `O=C(Nc1noc2ccccc12)N1CCC2(CC1)CC(c1cccc(Oc3ccc(C(F)(F)F)cn3)c1)C2` [Example 3, N-1,2-benzisoxazol-3-yl-2-(3-{[5-(trifluoromethyl)pyridin-2-yl]oxy}phenyl)-7-azaspiro[3.5]nonane-7-carboxamide], the “CFA Efficacy” value in experiment [1] (1 mpk, oral dosing) was “(−)”; in experiment [1] (25 mpk, intraperitoneal dosing) it was “(+)”. The results for the kinact/KI in experiment [2] and in experiment [3] were 1030 M⁻¹ s⁻¹ and 4920 M⁻¹ s⁻¹, respectively.

Take `COc1cccc(C2CC3(CCN(C(=O)Nc4onc(C)c4C)CC3)C2)c1` [Example 5, N-(3,4-dimethylisoxazol-5-yl)-2-(3-methoxyphenyl)-7-azaspiro[3.5]nonane-7-carboxamide]: the “CFA Efficacy” value in experiment [1] (10 mpk, intraperitoneal dosing) is given as “(+)^c”. For the same molecule, the values for the kinact/KI in experiment [2] and in experiment [3] were 2190 M⁻¹ s⁻¹ and 741 M⁻¹ s⁻¹, respectively.

For `Cc1noc(NC(=O)N2CCC3(CC2)CC(c2cccc(C(F)(F)F)c2)C3)c1C` [Example 6, N-(3,4-dimethylisoxazol-5-yl)-2-[3-(trifluoromethyl)phenyl]-7-azaspiro[3.5]nonane-7-carboxamide], the “CFA Efficacy” value in experiment [1] (1 mpk, oral dosing) is given as “(−)^e”. Besides, the kinact/KI turned out to be 3060 M⁻¹ s⁻¹ in experiment [2] and 3690 M⁻¹ s⁻¹ in experiment [3].

For the molecule `Cc1cccc(C2CC3(CCN(C(=O)Nc4onc(C)c4C)CC3)C2)c1` [Example 7, N-(3,4-dimethylisoxazol-5-yl)-2-(3-methylphenyl)-7-azaspiro[3.5]nonane-7-carboxamide], the “CFA Efficacy” value in experiment [1] (1 mpk, oral dosing) is on record as “(−)^e”. For the same molecule, the kinact/KI was determined as 2870 M⁻¹ s⁻¹ in experiment [2] and 1620 M⁻¹ s⁻¹ in experiment [3].

With `Cc1ccc(C2CC3(CCN(C(=O)Nc4onc(C)c4C)CC3)C2)cc1C` [Example 8, N-(3,4-dimethylisoxazol-5-yl)-2-(3,4-dimethylphenyl)-7-azaspiro[3.5]nonane-7-carboxamide], the “CFA Efficacy” value in experiment [1] (1 mpk, oral dosing) is given as “(−)^e”. For the same molecule, the kinact/KI in experiment [2] is 2820 M⁻¹ s⁻¹; in experiment [3], 1920 M⁻¹ s⁻¹.

`O=C(Nc1cccnn1)N1CCC2(CC1)CC(c1cccc(Oc3ncc(Br)cn3)c1)C2` [Example 9, 2-{3-[(5-bromopyrimidin-2-yl)oxy]phenyl}-N-pyridazin-3-yl-7-azaspiro[3.5]nonane-7-carboxamide]: the “CFA Efficacy” value in experiment [1] (10 mpk, intraperitoneal dosing) is recorded as “(+)^c”. Also, the kinact/KI stood at 2450 M⁻¹ s⁻¹ in experiment [2] and 1430 M⁻¹ s⁻¹ in experiment [3].

`O=C(Nc1cccnn1)N1CCC2(CC1)CC(c1cccc(Oc3ccc(Br)cn3)c1)C2` [Example 10, 2-{3-[(5-bromopyridin-2-yl)oxy]phenyl}-N-pyridazin-3-yl-7-azaspiro[3.5]nonane-7-carboxamide]: the “CFA Efficacy” value in experiment [1] (10 mpk, intraperitoneal dosing) is “(−)^c”. Moreover, the kinact/KI is 2040 M⁻¹ s⁻¹ in experiment [2] and 1820 M⁻¹ s⁻¹ in experiment [3].

The record behind these values is patent publication US20100113465A1, “7-AZASPIRO[3.5]NONANE-7-CARBOXAMIDE COMPOUNDS” (Pfizer Inc., priority 2008, published 2010).
